Reference: publication PMC6691761, “Potential multifunctional agents with anti-hepatoma and anti-inflammation properties by inhibiting NF-кB activation” (Journal of Enzyme Inhibition and Medicinal Chemistry, 2019)

What follows are molecules tested on human liver hepatocellular carcinoma cell line (HepG2) (assay: Cytotoxicity, MTT assay, HepG2). Details: Homo sapiens, HepG2, 24 h, MTT, 24 h.
Assay type: cell-based
Excerpt: (§1) Compounds 83–102 were screened against human neoplastic cell lines, such as human breast cancer cells (MCF-7), human colon cancer cells (HCT116), human lung carcinoma cells (A549), human gastric adenocarcinoma cells (SGC7901), human liver hepatocellular carcinoma cell line (HepG2), human cervical carcinoma cells (HeLa), human acute mononuclear granulocyte leukaemia (THP-1), and human normal hepatic cell line (LO2) using modified MTT assay. All the cells were obtained from the American Type Culture Collection (ATCC, Manassas, VA). The cells were cultured in DMEM or 1640. Positive controls (Doxorubicin (DOX) and Curcumin) and BAPs were initially dissolved in dimethyl sulphoxide (DMSO). Experimental concentration of DMSO was always 0.1% (v/v). The concentrations of BAPs and positive controls were 50, 20, 10, 5, 2.5, 1, 0.5, 0.1, 0.05, and 0.01 μg/mL.
(§2) The cells (1 × 10^4 cells/well) were seeded in a 96-well plate and incubated for 24 h. Cells treated with serial concentrations of drugs were incubated for another 24 h. After the media removed, 20 μL of MTT (5 mg/mL) solution was added and incubated for 4 h at 37 °C. The MTT solution was removed and then 150 μL of DMSO was added. The optical density was measured with a multi-well plate reader (TECAN, Mӓnnedorf, Switzerland) at 570 nm. The results are expressed as a decrease in the cell viability (%) in comparison to untreated controls. The concentration of each compound was examined in triplicate, and the IC50 values are expressed in Table 1.

Row | SMILES | IC50 [µM]
1 | CN1C/C(=C\c2cccc(N)c2)C(=O)/C(=C/c2ccccc2F)C1 [Compound 92, (3E,5E)-3-(3-aminobenzylidene)-5-(2-fluorobenzylidene)-1-methylpiperidin-4-one] | 1.1 ± 0.1

Same assay, conditions: MTT, 24 h

Row | SMILES | IC50 [µM]
2 | CN1CC(=Cc2cccc(N=Cc3ccc(O)c(O)c3O)c2)C(=O)C(=Cc2ccccc2F)C1 [Compound 100] | 8.8 ± 0.4

Same assay, conditions: quotient of IC50 towards LO2 cells

Row | SMILES | HepG2 SI (selectivity index)
3 | CN1CC(=Cc2cccc(N=Cc3ccc(O)c(O)c3O)c2)C(=O)C(=Cc2ccccc2F)C1 [Compound 100] | 2.3

Each molecule was assayed on human cervical carcinoma cells (HeLa) (assay: Cytotoxicity, MTT assay, HeLa). Details: Homo sapiens, HeLa; MTT, 24 h.
Assay type: cell-based
Excerpt: as §1, §2

Row | SMILES | IC50 [µM]
4 | CN1C/C(=C\c2cccc(N)c2)C(=O)/C(=C/c2ccccc2F)C1 [Compound 92, (3E,5E)-3-(3-aminobenzylidene)-5-(2-fluorobenzylidene)-1-methylpiperidin-4-one] | 2.5 ± 0.2

Same assay, conditions: MTT, 24 h

Row | SMILES | IC50 [µM]
5 | CN1CC(=Cc2cccc(N=Cc3ccc(O)c(O)c3O)c2)C(=O)C(=Cc2ccccc2F)C1 [Compound 100] | 11.9 ± 0.2

Same assay, conditions: quotient of IC50 towards LO2 cells

Row | SMILES | HeLa SI (selectivity index)
6 | CN1CC(=Cc2cccc(N=Cc3ccc(O)c(O)c3O)c2)C(=O)C(=Cc2ccccc2F)C1 [Compound 100] | 1.7

What follows are molecules tested on human acute mononuclear granulocyte leukaemia (THP-1) (assay: Cytotoxicity, MTT assay, THP-1). Details: Homo sapiens, THP-1, 24 h, MTT, 24 h.
Assay type: cell-based
Excerpt: as §1, §2

Row | SMILES | IC50 [µM]
7 | CN1C/C(=C\c2cccc(N)c2)C(=O)/C(=C/c2ccccc2F)C1 [Compound 92, (3E,5E)-3-(3-aminobenzylidene)-5-(2-fluorobenzylidene)-1-methylpiperidin-4-one] | 1.2 ± 0.2

Same assay, conditions: MTT, 24 h

Row | SMILES | IC50 [µM]
8 | CN1CC(=Cc2cccc(N=Cc3ccc(O)c(O)c3O)c2)C(=O)C(=Cc2ccccc2F)C1 [Compound 100] | 7.7 ± 0.1

Same assay, conditions: quotient of IC50 towards LO2 cells

Row | SMILES | THP-1 SI (selectivity index)
9 | CN1CC(=Cc2cccc(N=Cc3ccc(O)c(O)c3O)c2)C(=O)C(=Cc2ccccc2F)C1 [Compound 100] | 2.6

Each molecule was assayed on TNF-α production in LPS-stimulated RAW264.7 cells (assay: TNF-α production in LPS-stimulated RAW264.7 cells, ELISA). Details: 6.0 μM, 2 h pretreatment, LPS 1.0 μg/mL 22 h, ELISA.
Assay type: cell-based
Method: The anti-inflammatory activities of BAPs were evaluated by ELISA. After pretreated with 30 μM of positive drug pyrrolidinedithiocarbamate (PDTC) or 6 μM of BAPs for 2 h, cells were treated with LPS (1.0 μg/mL) for 22 h. The culture media were collected and centrifuged for detecting the expression levels of TNF-α by an ELISA kit (eBioScience, San Diego, CA).
TNF-α is a common pro-inflammatory factors that can be produced by LPS-stimulated RAW264.7 macrophage[14]^,[24]. In order to evaluate the anti-inflammatory activity of BAPs, the effect of BAPs on TNF-α production in LPS-stimulated RAW264.7 cells was detected by ELISA. […] Only 92 presented slightly lower expression of TNF-α secretion (about 57%).

Row | SMILES | TNF-α secretion (percent of LPS control)
10 | CN1C/C(=C\c2cccc(N)c2)C(=O)/C(=C/c2ccccc2F)C1 [Compound 92, (3E,5E)-3-(3-aminobenzylidene)-5-(2-fluorobenzylidene)-1-methylpiperidin-4-one] | about 57%

Same assay, conditions: BAPs 6.0 μM, PDTC 30 μM, LPS 1.0 μg/mL

Row | SMILES | TNF-α secretion [%]
11 | CN1CC(=Cc2cccc(N=Cc3ccc(O)c(O)c3O)c2)C(=O)C(=Cc2ccccc2F)C1 [Compound 100] | 45

The molecules below were run on human breast cancer cells (MCF-7) (assay: Cytotoxicity, MTT assay, MCF-7). Details: Homo sapiens, MCF7; MTT, 24 h.
Assay type: cell-based
Excerpt: as §1, §2

Row | SMILES | IC50 [µM]
12 | CN1C/C(=C\c2cccc(N)c2)C(=O)/C(=C/c2ccccc2F)C1 [Compound 92, (3E,5E)-3-(3-aminobenzylidene)-5-(2-fluorobenzylidene)-1-methylpiperidin-4-one] | 2.8 ± 0.3

Same assay, conditions: MTT, 24 h

Row | SMILES | IC50 [µM]
13 | CN1CC(=Cc2cccc(N=Cc3ccc(O)c(O)c3O)c2)C(=O)C(=Cc2ccccc2F)C1 [Compound 100] | 7.7 ± 0.2

Same assay, conditions: quotient of IC50 towards LO2 cells

Row | SMILES | MCF-7 SI (selectivity index)
14 | CN1CC(=Cc2cccc(N=Cc3ccc(O)c(O)c3O)c2)C(=O)C(=Cc2ccccc2F)C1 [Compound 100] | 2.6
15 | CN1C/C(=C\c2cccc(N)c2)C(=O)/C(=C/c2ccccc2F)C1 [Compound 92, (3E,5E)-3-(3-aminobenzylidene)-5-(2-fluorobenzylidene)-1-methylpiperidin-4-one] | 6.8

What follows are molecules tested on human gastric adenocarcinoma cells (SGC7901) (assay: Cytotoxicity, MTT assay, SGC7901). Details: Homo sapiens, SGC-7901; MTT, 24 h.
Assay type: cell-based
Excerpt: as §1, §2

Row | SMILES | IC50 [µM]
16 | CN1C/C(=C\c2cccc(N)c2)C(=O)/C(=C/c2ccccc2F)C1 [Compound 92, (3E,5E)-3-(3-aminobenzylidene)-5-(2-fluorobenzylidene)-1-methylpiperidin-4-one] | 2.8 ± 0.2

Same assay, conditions: MTT, 24 h

Row | SMILES | IC50 [µM]
17 | CN1CC(=Cc2cccc(N=Cc3ccc(O)c(O)c3O)c2)C(=O)C(=Cc2ccccc2F)C1 [Compound 100] | 3.6 ± 0.1

Same assay, conditions: quotient of IC50 towards LO2 cells

Row | SMILES | SGC7901 SI (selectivity index)
18 | CN1CC(=Cc2cccc(N=Cc3ccc(O)c(O)c3O)c2)C(=O)C(=Cc2ccccc2F)C1 [Compound 100] | 5.5
19 | CN1C/C(=C\c2cccc(N)c2)C(=O)/C(=C/c2ccccc2F)C1 [Compound 92, (3E,5E)-3-(3-aminobenzylidene)-5-(2-fluorobenzylidene)-1-methylpiperidin-4-one] | 6.8

The molecules below were run on human lung carcinoma cells (A549) (assay: Cytotoxicity, MTT assay, A549). Details: Homo sapiens, A549, 24 h, MTT, 24 h.
Assay type: cell-based
Excerpt: as §1, §2

Row | SMILES | IC50 [nM]
20 | CN1C/C(=C\c2cccc(N)c2)C(=O)/C(=C/c2ccccc2F)C1 [Compound 92, (3E,5E)-3-(3-aminobenzylidene)-5-(2-fluorobenzylidene)-1-methylpiperidin-4-one] | 2200 ± 100

Same assay, conditions: MTT, 24 h

Row | SMILES | IC50 [nM]
21 | CN1CC(=Cc2cccc(N=Cc3ccc(O)c(O)c3O)c2)C(=O)C(=Cc2ccccc2F)C1 [Compound 100] | 1900 ± 200

Same assay, conditions: quotient of IC50 towards LO2 cells

Row | SMILES | A549 SI (selectivity index)
22 | CN1CC(=Cc2cccc(N=Cc3ccc(O)c(O)c3O)c2)C(=O)C(=Cc2ccccc2F)C1 [Compound 100] | 10.4
23 | CN1C/C(=C\c2cccc(N)c2)C(=O)/C(=C/c2ccccc2F)C1 [Compound 92, (3E,5E)-3-(3-aminobenzylidene)-5-(2-fluorobenzylidene)-1-methylpiperidin-4-one] | 8.6

The molecules below were run on human normal hepatic cell line (LO2) (assay: Toxicity to normal cells, MTT assay, LO2). Details: 24 h.
Assay type: cell-based
Excerpt: as §1, §2

Row | SMILES | IC50 [µM]
24 | CN1CC(=Cc2cccc(N=Cc3ccc(O)c(O)c3O)c2)C(=O)C(=Cc2ccccc2F)C1 [Compound 100] | 19.8 ± 0.3

Same assay, conditions: Homo sapiens, 24 h

Row | SMILES | IC50 [µM]
25 | CN1C/C(=C\c2cccc(N)c2)C(=O)/C(=C/c2ccccc2F)C1 [Compound 92, (3E,5E)-3-(3-aminobenzylidene)-5-(2-fluorobenzylidene)-1-methylpiperidin-4-one] | 18.9 ± 0.7

These molecules were tested on human colon cancer cells (HCT116) (assay: Cytotoxicity, MTT assay, HCT116). Details: Homo sapiens, HCT-116; MTT, 24 h.
Assay type: cell-based
Excerpt: as §1, §2

Row | SMILES | IC50 [µM]
26 | CN1C/C(=C\c2cccc(N)c2)C(=O)/C(=C/c2ccccc2F)C1 [Compound 92, (3E,5E)-3-(3-aminobenzylidene)-5-(2-fluorobenzylidene)-1-methylpiperidin-4-one] | 3.1 ± 0.3

Same assay, conditions: MTT, 24 h

Row | SMILES | IC50 [µM]
27 | CN1CC(=Cc2cccc(N=Cc3ccc(O)c(O)c3O)c2)C(=O)C(=Cc2ccccc2F)C1 [Compound 100] | 11.9 ± 0.1

Same assay, conditions: quotient of IC50 towards LO2 cells

Row | SMILES | HCT116 SI (selectivity index)
28 | CN1CC(=Cc2cccc(N=Cc3ccc(O)c(O)c3O)c2)C(=O)C(=Cc2ccccc2F)C1 [Compound 100] | 1.7
